Marks after values point to notes of the source that are not given here.
Key:
[1] = tested on: Silverleaf whitefly biotype B (neonicotinoid-sensitive strain); assay: Lab tests in cotton: nymph mortality of silverleaf whitefly biotype B; type: in vivo, Bemisia tabaci; settings: cotton plants; acetamiprid-treated (FIG. 3A)
Procedure: (§1) Cotton plants were grown in pots and sprayed with the indicated materials using a hand-sprayer. 20-25 females of Silverleaf whitefly biotype B (neonicotinoid-sensitive strain) or biotype Q (neonicotinoid-resistant strain) were transferred to each pot and attached to the treated leaves. Nymphs mortality was evaluated 1 and 2 weeks after treatment application and determined by percent (%) of pupation.

[2] = tested on: Silverleaf whitefly biotype Q (neonicotinoid-resistant strain); assay: Lab tests in cotton: nymph mortality of silverleaf whitefly biotype Q; type: in vivo, Bemisia tabaci; settings: cotton plants
Procedure: as §1

Thrips tabaci [3] = assay: Field tests in cauliflower: Thrips on leaves and Thrips-induced damage; type: in vivo; settings: another experiment, diafenthiuron 375 g/ha, PPT 400 g/ha; for Thrips adults per leaf / Thrips larva per leaf: cauliflower
Source text: Cauliflower plants of White Corona variety at 20-30 cm height were sprayed twice at a 7 days interval with the indicted materials at a volume of 400-500 liter per hectare, using 3-nozzled ECHO backpack sprayer. The experiment included 4 repeats in random blocks of […] plants growth, each repeat at an area of 20 m^2. plots having high levels of Thrips tabaci (Thrips) infestation (5-10 Thrips per leaf) at uniform distribution at the beginning of the experiment were chosen for analysis, and 10 leaves per plot were picked and assessed for Thrips number. The number of Thrips adults or larva on each leaf was counted using OptiVISOR® magnifying device. The number of silverleaf whitefly (SLW) nymphs on each leaf was also counted using OptiVISOR® magnifying device.
At the end of the experiment the damage to the upper side of leaves caused by Thrips infestation was assessed on a scale of 0-5, where 0 equals no damage and 5 equals scraping on the leaf's blade (surface).

[4] = tested on: Pink Bollworm (Pectinophora gossypiella); assay: Lab tests on pink bollworm eggs: hatching and larva development; type: in vivo; settings: 0.15% PPT solution, 5 repeats
Source text: Paper cuttings with Egg clusters of pink bollworm were soaked in a 0.15% PPT solution, and hatching and larva development were observed compared to untreated controls (UTC).

Thrips tabaci [5] = assay: Field tests in cucumber: number of Thrips on leaves; type: in vivo; settings: second experiment
Source text: Cucumber plants of kingstar variety at 170-190 cm height were sprayed twice at a 4 days interval with the indicted materials at a volume of 400-600 liter per hectare, using 3-nozzled ECHO backpack sprayer. The experiment included 4 repeats in random blocks of cucumber plants growth, each repeat at an area of 10-16 m^2. Plots having high levels of Thrips tabaci (Thrips) infestation (5-10 Thrips per leaf) at uniform distribution at the beginning of the experiment were chosen for analysis, and 10 leaves at shoulder height were picked and the number of Thrips was determined for each leaf.

[6] = tested on: Spodoptera littoralis stage 2-3 larva; assay: Screening assay for lethality; type: in vivo; settings: PPT 50 ppm added to artificial medium; 3 screens, 4 larva replicates each
Procedure: Spodoptera littoralis stage 2-3 larva were grown in entomology trays on artificial medium. Treatment with PPT was effected by the addition of PPT (50 ppm) to the medium and lethality was assessed. The screening assay was repeated 3 times, with 4 larva replicates in each screen.

Aphids (Aphis gossypii) = assay: Field tests in cotton: number of Aphids; type: in vivo; settings: 6 days after the third application; EOS 1%, spinosad 60.5 g/ha, PPT 100 or 300 g/ha (FIG. 4B)
Source text: Cotton plants were sprayed 3-4 times at 6-7 days interval with the indicated materials at a volume of 400 liter per hectare. The experiment included 4-5 repeats in random blocks of cotton plants growth, each repeat at an area of 8-10 m^2. The number of Thrips adults or larva, as well as the number of Aphids (Aphis gossypii), on each leaf was counted using OptiVISOR® magnifying device.

[7] = 4 DPA, neem oil 1%, PPT alone 225 g/ha
[8] = 9 DPA, neem oil 1%, PPT alone 225 g/ha
[9] = Day 0 (baseline), neem oil 1%, PPT alone 225 g/ha

For `C/C(=N\C#N)N(C)Cc1ccc(Cl)nc1` [Acetamiprid, reference compound], the “nymph mortality of SLW biotype B, determined by percent of pupation” value [1] was “efficient in eliminating SLW nymphs” and the “nymph mortality of SLW biotype Q, determined by percent of pupation” value ([2]; acetamiprid 10 ppm (FIG. 3B)) was “had no effect”.
For `CC(C)c1cc(Oc2ccccc2)cc(C(C)C)c1NC(=S)NC(C)(C)C` [Diafenthiuron, reference compound], the “% efficacy on Thrips larva in cauliflower leaves” value (Thrips tabaci [3]; 7 DPA) was 10%, the “% efficacy on Thrips larva in cauliflower leaves” value (Thrips tabaci [3]; 14 DPA) was 0% and the “Thrips adults per leaf” value (Thrips tabaci [3]; 7 DPA) was 1.3 per leaf. The “Thrips larva per leaf” value (Thrips tabaci [3]; 7 DPA) was 13.9 per leaf, the “Thrips adults per leaf” value (Thrips tabaci [3]; 14 DPA) was 2.1 per leaf and the “Thrips larva per leaf” value (Thrips tabaci [3]; 14 DPA) was 9.8 per leaf. The “Thrips adults per leaf” value (Thrips tabaci [3]; Day 0 (baseline)) was 2.9 per leaf and the “Thrips larva per leaf” value (Thrips tabaci [3]; Day 0 (baseline)) was 13.0 per leaf.
In the case of `CC(C)=CCC[C@](C)(O)[C@H]1CC[C@]2(C)[C@@H]1[C@H](O)C[C@@H]1[C@@]3(C)CC[C@H](O)C(C)(C)[C@@H]3[C@@H](O)C[C@]12C` [PPT, Protopanaxatriol], the “Average number of hatchings” value ([4]; day 9 after treatment) is reported as 0.2, the “Average number of larva” value ([4]; day 16 post treatment) is reported as 0 and the “Average number of late hatchings” value ([4]; day 16 post treatment) is reported as 1.8. The “% efficacy on Thrips larva in cauliflower leaves” value (Thrips tabaci [3]; 7 DPA) was 60%, the “% efficacy on Thrips larva in cauliflower leaves” value (Thrips tabaci [3]; 14 DPA) was 60% and the “Thrips adults per leaf” value (Thrips tabaci [3]; 7 DPA) was 0.6 per leaf. For the same molecule, the “Thrips larva per leaf” value (Thrips tabaci [3]; 7 DPA) was 5.9 per leaf, the “Thrips adults per leaf” value (Thrips tabaci [3]; 14 DPA) was 0.48^a,b per leaf and the “Thrips larva per leaf” value (Thrips tabaci [3]; 14 DPA) was 4.4^a,b per leaf. For the same molecule, the “Thrips adults per leaf” value (Thrips tabaci [3]; Day 0 (baseline)) was 3.0 per leaf, the “Thrips larva per leaf” value (Thrips tabaci [3]; Day 0 (baseline)) was 16.5 per leaf and the “mortality of resistant SLW biotype (Q) nymphs” value ([2]; PPT 0.075% (0.5x) or 0.15% (1x), dose-dependent (FIG. 3B)) was “up to 93%”. The “% efficacy on Thrips in cucumber leaves” value (Thrips tabaci [5]; 4 DPA, PPT 500 g/ha) was 65.8%, the “Number of Thrips adults on 10 cucumber leaves” value (“Number of Thrips adults” for short) (Thrips tabaci [5]; 4 DPA, PPT 500 g/ha) was 42.5 and the “Number of Thrips larva on 10 cucumber leaves” value (shortened to “Number of Thrips larva”) (Thrips tabaci [5]; 4 DPA, PPT 500 g/ha) was 30.0^a. The “Number of total Thrips (adults and larva) on 10 cucumber leaves” value (shortened to “Number of total Thrips”) (Thrips tabaci [5]; 4 DPA, PPT 500 g/ha) was 72.5^a, the “% efficacy on Thrips in cucumber leaves” value (Thrips tabaci [5]; [7]) was 41.4% and the “Number of Thrips adults” value (Thrips tabaci [5]; [7]) was 78.3. The “Number of Thrips larva” value (Thrips tabaci [5]; [7]) was 45.8^a, the “Number of total Thrips” value (Thrips tabaci [5]; [7]) was 124.0 and the “Number of Thrips adults” value (Thrips tabaci [5]; 9 DPA, PPT 500 g/ha) was 18.0. The “Number of Thrips larva” value (Thrips tabaci [5]; 9 DPA, PPT 500 g/ha) was 13.0, the “Number of total Thrips” value (Thrips tabaci [5]; 9 DPA, PPT 500 g/ha) was 31.0 and the “Number of Thrips adults” value (Thrips tabaci [5]; [8]) was 22.3. For the same molecule, the “Number of Thrips larva” value (Thrips tabaci [5]; [8]) was 38.8, the “Number of total Thrips” value (Thrips tabaci [5]; [8]) was 61.0 and the “Number of Thrips adults” value (Thrips tabaci [5]; Day 0 (baseline), PPT 500 g/ha) was 41.8. The “Number of Thrips larva” value (Thrips tabaci [5]; Day 0 (baseline), PPT 500 g/ha) was 110.0, the “Number of total Thrips” value (Thrips tabaci [5]; Day 0 (baseline), PPT 500 g/ha) was 151.8 and the “Number of Thrips adults” value (Thrips tabaci [5]; [9]) was 36.0. The “Number of Thrips larva” value (Thrips tabaci [5]; [9]) was 95.8, the “Number of total Thrips” value (Thrips tabaci [5]; [9]) was 131.8 and the lethality to larva [6] was “lethal”.
spinosad was tested, and the “number of Aphids on the cotton plants” value (Aphids (Aphis gossypii)) was “little or no effect”.
